Results reported in patent publication US20240247024A1, “INHIBITORS OF NICOTINAMIDE N-METHYL TRANSFERASE (NNMT)” (UNIVERSITEIT LEIDEN, priority 2021, published 2024).
Several values for one entry are separate records, joined by “and”; a condition that tells them apart may be missing. Equal values may be shown once. Read-outs that look alike come from different tables or passages of the source.

Molecular target: T1, NNMT (Homo sapiens, UniProt P40261)
T1 sequence (P40261 1-264): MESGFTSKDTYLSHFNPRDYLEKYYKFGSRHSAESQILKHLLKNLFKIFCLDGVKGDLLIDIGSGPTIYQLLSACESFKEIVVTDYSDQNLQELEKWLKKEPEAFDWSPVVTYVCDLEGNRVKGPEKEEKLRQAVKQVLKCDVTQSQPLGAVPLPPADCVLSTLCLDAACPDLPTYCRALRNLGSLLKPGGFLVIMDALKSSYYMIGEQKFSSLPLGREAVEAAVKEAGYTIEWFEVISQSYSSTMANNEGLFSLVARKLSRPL
Assay: NNMT assay (HILIC-MS/MS, formation of MNA)
Conditions: NA 200 μM, SAM 8.5 μM

[1] = IC50 values (nM), Table 9, compounds CM035 and CM037
[2] = IC50 values (μM), Table 9, compounds CM035 and CM037
[3] = read-out: IC50 values, Table 1, alkene linked aromatics, maximum concentration tested 25 μM
[4] = IC50 values (nM), Table 3, 1-carbon alkyl linkers, maximum concentration tested 25 μM
[5] = IC50 values (μM), Table 3, 1-carbon alkyl linkers, maximum concentration tested 25 μM
[6] = IC50 values (nM), Table 6, amino acid replacement, maximum concentration tested 25 μM
[7] = IC50 values (μM), Table 6, amino acid replacement, maximum concentration tested 25 μM

Row | SMILES | IC50 [6] [nM] | IC50 [7] [nM] | IC50 [3] | also measured
1 | CC(=O)N(C/C=C/c1ccc(C#N)cc1)C[C@H]1C[C@@H](n2ccc3c(Cl)ncnc32)[C@H](O)[C@@H]1O [CM035] |  |  |  | IC50 [1]: 3580 nM; IC50 [2]: 3580 nM
2 | CC(=O)N(C/C=C/c1ccc(C#N)cc1)C[C@H]1C[C@@H](n2ccc3c(N)ncnc32)[C@H](O)[C@@H]1O [CM037] |  |  |  | IC50 [1]: 264 nM; IC50 [2]: 260 nM
3 | Nc1ncnc2c1ncn2[C@@H]1O[C@H](CN(C/C=C/c2ccccc2C(F)(F)F)CC[C@H](N)C(=O)O)[C@@H](O)[C@H]1O [GYZ-326] |  |  | 2850 nM | 
4 | Nc1ncnc2c1ncn2[C@@H]1O[C@H](CN(C/C=C/c2c(Cl)cccc2Cl)CC[C@H](N)C(=O)O)[C@@H](O)[C@H]1O [GYZ-336] |  |  | > 25000 nM | 
5 | Nc1ncnc2c1ncn2[C@@H]1O[C@H](CN(C/C=C/c2cccc(C(F)(F)F)c2)CC[C@H](N)C(=O)O)[C@@H](O)[C@H]1O [GYZ-349] |  |  | 164 nM | 
6 | Nc1ncnc2c1ncn2[C@@H]1O[C@H](CN(C/C=C/c2ccc(C(F)(F)F)cc2)CC[C@H](N)C(=O)O)[C@@H](O)[C@H]1O [GYZ-350] |  |  | 1390 nM | 
7 | Nc1ncnc2c1ncn2[C@@H]1O[C@H](CN(CC[C@H](N)C(=O)O)Cc2ccc(C(F)(F)F)cc2)[C@@H](O)[C@H]1O [GYZ-414] |  |  |  | IC50 [4]: 6790 nM; IC50 [5]: 6790 nM
8 | Nc1ncnc2c1ncn2[C@@H]1O[C@H](CN(CC[C@H](N)C(=O)O)Cc2ccccc2C(F)(F)F)[C@@H](O)[C@H]1O [GYZ-415] |  |  |  | IC50 [4]: 9700 nM; IC50 [5]: 9700 nM
9 | Nc1ncnc2c1ncn2[C@@H]1O[C@H](CN(CC[C@H](N)C(=O)O)Cc2cccc(C(F)(F)F)c2)[C@@H](O)[C@H]1O [GYZ-416] |  |  |  | IC50 [4]: 6580 nM; IC50 [5]: 6580 nM
10 | Nc1ncnc2c1ncn2[C@@H]1O[C@H](CN(CC[C@H](N)C(=O)O)Cc2ccc(F)c([N+](=O)[O-])c2)[C@@H](O)[C@H]1O [GYZ-417] |  |  |  | IC50 (read-out: IC50 values, Table 3, 1-carbon alkyl linkers, maximum concentration tested 25 μM): 410 nM and 407 nM
11 | Nc1ncnc2c1ncn2[C@@H]1O[C@H](CN(CC[C@H](N)C(=O)O)Cc2cccc([N+](=O)[O-])c2)[C@@H](O)[C@H]1O [GYZ-419] |  |  |  | IC50 [4]: 320 nM; IC50 [5]: 320 nM
12 | Nc1ncnc2c1ncn2[C@@H]1O[C@H](CN(CC[C@H](N)C(=O)O)Cc2ccc([N+](=O)[O-])cc2)[C@@H](O)[C@H]1O [GYZ-420] |  |  |  | IC50 [4]: 6610 nM; IC50 [5]: 6610 nM
13 | Nc1ncnc2c1ncn2[C@@H]1O[C@H](CN(CC[C@H](N)C(=O)O)Cc2ccccc2F)[C@@H](O)[C@H]1O [GYZ-421] |  |  |  | IC50 [4]: > 25000 nM; IC50 [5]: > 25000 nM
14 | Nc1ncnc2c1ncn2[C@@H]1O[C@H](CN(CC[C@H](N)C(=O)O)Cc2cccc(F)c2)[C@@H](O)[C@H]1O [GYZ-422] |  |  |  | IC50 [4]: 1240 nM; IC50 [5]: 1240 nM
15 | Nc1ncnc2c1ncn2[C@@H]1O[C@H](CN(CC[C@H](N)C(=O)O)Cc2ccc(F)cc2)[C@@H](O)[C@H]1O [GYZ-423] |  |  |  | IC50 [4]: > 25000 nM; IC50 [5]: > 25000 nM
16 | Nc1ncnc2c1ncn2[C@@H]1O[C@H](CN(CC[C@H](N)C(=O)O)Cc2ccccc2[N+](=O)[O-])[C@@H](O)[C@H]1O [GYZ-425] |  |  |  | IC50 [4]: > 25000 nM; IC50 [5]: > 25000 nM
17 | Nc1ncnc2c1ncn2[C@@H]1O[C@H](CN(CCCc2ccc([N+](=O)[O-])cc2)CC[C@H](N)C(=O)O)[C@@H](O)[C@H]1O [GYZ-447] |  |  |  | IC50 (IC50 values (nM), Table 5, 3-carbon alkyl linkers): 294 nM; IC50 (IC50 values (μM), Table 5, 3-carbon alkyl linkers): 290 nM
18 | Nc1ncnc2c1ncn2[C@@H]1O[C@H](CN(C/C=C/c2ccc(C(=O)O)cc2)CC[C@H](N)C(=O)O)[C@@H](O)[C@H]1O [GYZ-564] |  |  | > 25000 nM | 
19 | N#Cc1ccc(/C=C/CN(CC[C@H](N)C(=O)O)C[C@H]2O[C@@H](n3cnc4c(N)ncnc43)[C@H](O)[C@@H]2O)cc1F [GYZ-658] |  |  | < 5 nM | 
20 | N#Cc1c(F)cc(/C=C/CN(CC[C@H](N)C(=O)O)C[C@H]2O[C@@H](n3cnc4c(N)ncnc43)[C@H](O)[C@@H]2O)cc1F [GYZ-670] |  |  | 2 nM and 1.99 nM | 
21 | N#Cc1ccc(/C=C/CN(CC[C@H](N)C(=O)O)C[C@H]2O[C@@H](n3cnc4c(N)ncnc43)[C@H](O)[C@@H]2O)c(F)c1 [GYZ-674] |  |  | 5 nM and 5.33 nM | 
22 | C=CC(=O)CCCN(C/C=C/c1ccc(C#N)cc1)C[C@H]1O[C@@H](n2cnc3c(N)ncnc32)[C@H](O)[C@@H]1O [GYZ-704] |  |  |  | IC50 (read-out: IC50 values, Table 6, amino acid replacement, maximum concentration tested 25 μM): 538 nM
23 | Nc1ncnc2c1ncn2[C@@H]1O[C@H](CN(C/C=C/c2ccc(B(O)O)cc2)CC[C@H](N)C(=O)O)[C@@H](O)[C@H]1O [GYZ-732] |  |  | > 25000 nM | 
24 | Nc1ncnc2c1ncn2[C@@H]1O[C@H](CN(C/C=C/c2ccc(S(=O)(=O)F)cc2)CC[C@H](N)C(=O)O)[C@@H](O)[C@H]1O [GYZ-736] |  |  | 68 nM and 67.9 nM | 
25 | NC(=O)c1cc(/C=C/CN(CC[C@H](N)C(=O)O)C[C@H]2O[C@@H](n3cnc4c(N)ncnc43)[C@H](O)[C@@H]2O)ccc1Br [GYZ-739] |  |  | 7 nM and 6.8 nM | 
26 | N#Cc1ccc(/C=C/CN(C/C=C/c2ccc(S(=O)(=O)F)cc2)C[C@H]2O[C@@H](n3cnc4c(N)ncnc43)[C@H](O)[C@@H]2O)cc1 [GYZ-743] | 7780 | 7780 |  | 
27 | Nc1ncnc2c1ncn2[C@@H]1O[C@H](CN(C/C=C/c2cccc(B(O)O)c2)CC[C@H](N)C(=O)O)[C@@H](O)[C@H]1O [GYZ-746] |  |  | 1660 nM | 
28 | N#Cc1ccc(/C=C/CN(CCS(=O)(=O)F)C[C@H]2O[C@@H](n3cnc4c(N)ncnc43)[C@H](O)[C@@H]2O)cc1 [GYZ-748] | > 25000 | > 25000 |  | 

Now from value to compound, other results behind:

Row | IC50 [6] [nM] | IC50 [7] [nM] | SMILES | IC50 [3] | also measured
29 | > 25000 | > 25000 | N#Cc1ccc(/C=C/CN(C/C=C/c2ccc(C#N)cc2)C[C@H]2O[C@@H](n3cnc4c(N)ncnc43)[C@H](O)[C@@H]2O)cc1 [GYZ-466] |  | 
30 | 356 |  | N#Cc1ccc(/C=C/CN(CCC[C@H](N)C(=O)O)C[C@H]2O[C@@H](n3cnc4c(N)ncnc43)[C@H](O)[C@@H]2O)cc1 [GYZ-485] |  | 
31 | 21000 | 21000 | C=CC(=O)NCCN(C/C=C/c1ccc(C#N)cc1)C[C@H]1O[C@@H](n2cnc3c(N)ncnc32)[C@H](O)[C@@H]1O [GYZ-604] |  | 
32 | 11900 | 11900 | N#Cc1ccc(/C=C/CN(CCCNC(=O)CCl)C[C@H]2O[C@@H](n3cnc4c(N)ncnc43)[C@H](O)[C@@H]2O)cc1 [GYZ-608] |  | 
33 | 4160 | 4160 | C=CC(=O)N1CC(CN(C/C=C/c2ccc(C#N)cc2)C[C@H]2O[C@@H](n3cnc4c(N)ncnc43)[C@H](O)[C@@H]2O)C1 [GYZ-665] |  | 
34 | 7770 | 7770 | N#Cc1ccc(/C=C/CN(CCNC(=O)C(F)(F)F)C[C@H]2O[C@@H](n3cnc4c(N)ncnc43)[C@H](O)[C@@H]2O)cc1 [GYZ-693] |  | 
35 | > 25000 | > 25000 | COC(=O)/C=C/C(=O)NCCN(C/C=C/c1ccc(C#N)cc1)C[C@H]1O[C@@H](n2cnc3c(N)ncnc32)[C@H](O)[C@@H]1O [GYZ-694] |  | 
36 | 931 | 931 | N#CCC(=O)NCCN(C/C=C/c1ccc(C#N)cc1)C[C@H]1O[C@@H](n2cnc3c(N)ncnc32)[C@H](O)[C@@H]1O [GYZ-695] |  | 
37 | > 25000 | > 25000 | N#Cc1ccc(/C=C/CN(CCNC(=O)C(F)(F)Cl)C[C@H]2O[C@@H](n3cnc4c(N)ncnc43)[C@H](O)[C@@H]2O)cc1 [GYZ-701] |  | 
38 | 980 | 980 | N#Cc1ccc(/C=C/CN(CC(=O)CCl)C[C@H]2O[C@@H](n3cnc4c(N)ncnc43)[C@H](O)[C@@H]2O)cc1 [GYZ-702] |  | 
39 | > 25000 | > 25000 | N#Cc1ccc(/C=C/CN(CCNC(=O)C(F)(F)Br)C[C@H]2O[C@@H](n3cnc4c(N)ncnc43)[C@H](O)[C@@H]2O)cc1 [GYZ-706] |  | 
40 | > 25000 | > 25000 | CCCCCN(C/C=C/c1ccc(C#N)cc1)C[C@H]1O[C@@H](n2cnc3c(N)ncnc32)[C@H](O)[C@@H]1O [GYZ-718] |  | 
